Test results reported in patent publication US11266662B2, “Ganaxolone for use in prophylaxis and treatment of postpartum depression” (Marinus Pharmaceuticals, Inc., priority 2018, dated 2022).
“And” between values parts separate entries of the source, which are not always exact repeats. Identical values can stand only once.

Assay: Phase 2A study (Magnolia) in women with postpartum depression: ganaxolone plasma concentrations / pharmacokinetics
Details: for GNX Concentration: individual subjects, listed as GNX; for concentration at 12 h / concentration at 24 h / concentration at 48 h / concentration at 24 hr / concentration at 48 hr / concentration at 12 hr / AUC: female, human, plasma; for concentration at 12 h / concentration at 24 h / concentration at 48 h / concentration at 24 hr / concentration at 48 hr / concentration at 12 hr: intravenous, Mean average GNX Concentration; for AUC: iv, 86 ug/kg, dose 86 μg/kg/hr (row order of Table 1C)
Protocol: Approximately 200 women with PPD 18 to 45 years of age are screened to randomize up to 100 subjects across up to 6 cohorts. Approximately 10-30 subjects are randomized into each cohort. Randomized subjects receive the investigational product (IP), ganaxolone or matching placebo in a 1:1 ratio. In Cohorts 1-5 the IP is administered intravenously over 60 hours. In Cohort 6 the dosing is initiated with a 6-hour intravenous (IV) infusion followed by oral dosing for 28 days plus 3-day taper.
Ganaxolone is infused at a rate of 4 mg/hr (16 ml/h of ganaxolone 0.25 mg/ml solution) for 48 hours and then, to minimize any risks for withdrawal or rebound of anxiety and depression symptoms, at a rate of 2 mg/hr for the next 12 hours. The infusion is stopped at 60 hours. Total of 9 subjects are dosed for this cohort.
Ganaxolone is infused at a rate of 8 mg/hr (16 ml/h of ganaxolone 0.5 mg/ml solution) for 48 hours and then at a rate of 4 mg/hr for the next 12 hours. This dose is approximately double the expected plasma exposure as compared to Cohort 1 at steady state (Cohort 2 expected plasma concentration ˜100-120 ng/mL). The infusion is stopped at 60 hours.
Twelve mg bolus of ganaxolone is initially given over 2 minutes followed by ganaxolone infusion at a rate of 12 mg/hr (24 ml/h of ganaxolone 0.5 mg/ml solution) for 48 hours. The rate is then reduced to 6 mg/hr for the next 12 hours, which is done to minimize any risks for withdrawal or rebound of anxiety and depression symptoms. The infusion is stopped at 60 hours.
In this cohort dosing is initiated with ganaxolone infusion at a rate of 20 mg/hr (40 ml/h of ganaxolone 0.5 mg/ml solution or matching placebo) for 6 hours followed by ganaxolone 900 mg (four 225 mg capsules per dose) or matching placebo capsules given orally at dinner time for 28 days followed by a 3-day taper (three, two, and one 225 mg capsule(s) per day, respectively).
This initial infusion is targeted to provide a fast onset of antidepressant activity by delivery of rapid plasma exposures to ganaxolone. Then, at dinner time of Day 1 the subjects take their first oral dose of ganaxolone 900 mg (four 225 mg capsules) or matching placebo (4 capsules). […] In previous studies, ganaxolone has been given up to a daily dose of 2000 mg, and at single doses of 1000 mg.
Six samples are collected for pharmacokinetic analysis in Cohorts 1-5 and 12 samples in Cohort 6. […] Seven samples are collected during the inpatient phase of Cohort 6 (including 6 samples on Day 1) followed by collection of 5 samples during the outpatient phase during the study visits for a total of 12 samples in Cohort 6.

CC(=O)[C@H]1CC[C@H]2[C@@H]3CC[C@H]4C[C@](C)(O)CC[C@]4(C)[C@H]3CC[C@]12C [ganaxolone, 3α-hydroxy-3β-methyl-5α-pregnan-20-one]
Targeted ganaxolone plasma concentration at steady state (Css) (Cohort 1, infusion rate 4 mg/hr, estimated target): 52 ng/mL | GNX Concentration (Cohort 1: IV 4 mg/hr for 48 h then 2 mg/hr for 12 h, time 12 hr): 61.6 ng/mL | GNX Concentration (Cohort 1: IV 4 mg/hr for 48 h then 2 mg/hr for 12 h, time 24 hr): 59 ng/mL | Expected plasma concentration at steady state (Cohort 2, 8 mg/hr): 100 to 120 ng/mL | GNX Concentration (Cohort 2: IV 8 mg/hr for 48 h then 4 mg/hr for 12 h, time 12 hr): 107 ng/mL (2×) and 70.8 ng/mL and 111 ng/mL and 150 ng/mL and 115 ng/mL and 63.3 ng/mL and 69.3 ng/mL and 116 ng/mL and 49.5 ng/mL and 146 ng/mL and 183 ng/mL and 140 ng/mL and 71.5 ng/mL and 77.6 ng/mL | GNX Concentration (Cohort 2: IV 8 mg/hr for 48 h then 4 mg/hr for 12 h, time 24 hr): 125 ng/mL and 92 ng/mL and 140 ng/mL and 45.5 ng/mL and 75.7 ng/mL and 106 ng/mL and 96.5 ng/mL and 1590* ng/mL and 142 ng/mL and 80.6 ng/mL and 175 ng/mL and 174 ng/mL and 162 ng/mL and 89.3 ng/mL and 26100* ng/mL | GNX Concentration (Cohort 2: IV 8 mg/hr for 48 h then 4 mg/hr for 12 h, time 48 hr): 120 ng/mL (2×) and 136 ng/mL and 102 ng/mL and 197 ng/mL and 92 ng/mL and 77.8 ng/mL and 73.9 ng/mL and 118 ng/mL and 73.1 ng/mL and 131 ng/mL and 298 ng/mL and 132 ng/mL and 93.6 ng/mL and 7390* ng/mL | GNX Concentration (Cohort 2: IV 8 mg/hr for 48 h then 4 mg/hr for 12 h, time 72 hr): 27.1 ng/mL and 26.4 ng/mL and 30.1 ng/mL and 28.2 ng/mL and 11.9 ng/mL and 23.9 ng/mL and 23.1 ng/mL and 26.8 ng/mL and 25.6 ng/mL and 19.4 ng/mL and 46.2 ng/mL and 26.9 ng/mL and 21.5 ng/mL and 18.1 ng/mL and 27.5 ng/mL | Expected peak plasma concentrations during initial 2-minute bolus (Cohort 3, 12 mg bolus over 2 minutes): up to 300 ng/ml | GNX Concentration (Cohort 3: 12 mg bolus, IV 12 mg/hr for 48 h then 6 mg/hr for 12 h, time 12 hr): 137 ng/mL and 100 ng/mL and 106 ng/mL and 118 ng/mL and 138 ng/mL and 230 ng/mL and 126 ng/mL and 204 ng/mL and 61.1 ng/mL | GNX Concentration (Cohort 3: 12 mg bolus, IV 12 mg/hr for 48 h then 6 mg/hr for 12 h, time 24 hr): 164 ng/mL and 125 ng/mL and 148 ng/mL and 163 ng/mL and 165 ng/mL and 254 ng/mL and 144 ng/mL and 250 ng/mL and 56 ng/mL and 16 ng/mL | GNX Concentration (Cohort 3: 12 mg bolus, IV 12 mg/hr for 48 h then 6 mg/hr for 12 h, time 48 hr): 207 ng/mL and 146 ng/mL and 212 ng/mL and 66.4 ng/mL and 211 ng/mL and 213 ng/mL and 4160* ng/mL and 209 ng/mL and 85 ng/mL | GNX Concentration (Cohort 3: 12 mg bolus, IV 12 mg/hr for 48 h then 6 mg/hr for 12 h, time 72 hr): 49.3 ng/mL and 26.1 ng/mL and 30 ng/mL and 46.2 ng/mL and 44.6 ng/mL and 42.8 ng/mL and 30.2 ng/mL and 31.7 ng/mL and 17.5 ng/mL and 15.2 ng/mL | concentration at 12 h (86 μg/kg/hr, calculated for dose 86 μg/kg/hr, time 12 hr): 81.4 ng/mL | concentration at 24 h (86 μg/kg/hr, calculated for dose 86 μg/kg/hr, time 24 hr): 91.2 ng/mL | concentration at 48 h (86 μg/kg/hr, calculated for dose 86 μg/kg/hr, time 48 hr): 100 ng/mL | concentration at 12 h (150 μg/kg/hr, calculated for dose 150 μg/kg/hr, time 12 hr): 142 ng/mL | concentration at 24 hr (150 μg/kg/hr, calculated for dose 150 μg/kg/hr, time 24 hr): 159 ng/mL | concentration at 48 hr (150 μg/kg/hr, calculated for dose 150 μg/kg/hr, time 48 hr): 175 ng/mL | concentration at 12 hr (160 μg/kg/hr, calculated for dose 160 μg/kg/hr, time 12 hr): 151 ng/mL | concentration at 24 hr (160 μg/kg/hr, calculated for dose 160 μg/kg/hr, time 24 hr): 170 ng/mL | concentration at 48 hr (160 μg/kg/hr, calculated for dose 160 μg/kg/hr, time 48 hr): 187 ng/mL | concentration at 12 hr (170 μg/kg/hr, calculated for dose 170 μg/kg/hr, time 12 hr): 161 ng/mL | concentration at 24 hr (170 μg/kg/hr, calculated for dose 170 μg/kg/hr, time 24 hr): 180 ng/mL | concentration at 48 hr (170 μg/kg/hr, calculated for dose 170 μg/kg/hr, time 48 hr): 199 ng/mL | concentration at 12 h (180 μg/kg/hr, calculated for dose 180 μg/kg/hr, time 12 hr): 170 ng/mL | concentration at 24 h (180 μg/kg/hr, calculated for dose 180 μg/kg/hr, time 24 hr): 191 ng/mL | concentration at 48 h (180 μg/kg/hr, calculated for dose 180 μg/kg/hr, time 48 hr): 210 ng/mL | concentration at 12 h (190 μg/kg/hr, calculated for dose 190 μg/kg/hr, time 12 hr): 180 ng/mL | concentration at 24 h (190 μg/kg/hr, calculated for dose 190 μg/kg/hr, time 24 hr): 202 ng/mL | concentration at 48 h (190 μg/kg/hr, calculated for dose 190 μg/kg/hr, time 48 hr): 222 ng/mL | concentration at 12 h (200 μg/kg/hr, calculated for dose 200 μg/kg/hr, time 12 hr): 189 ng/mL | concentration at 24 h (200 μg/kg/hr, calculated for dose 200 μg/kg/hr, time 24 hr): 212 ng/mL | concentration at 48 h (200 μg/kg/hr, calculated for dose 200 μg/kg/hr, time 48 hr): 234 ng/mL | concentration at 12 h (210 μg/kg/hr, calculated for dose 210 μg/kg/hr, time 12 hr): 199 ng/mL | concentration at 24 h (210 μg/kg/hr, calculated for dose 210 μg/kg/hr, time 24 hr): 223 ng/mL | concentration at 48 h (210 μg/kg/hr, calculated for dose 210 μg/kg/hr, time 48 hr): 246 ng/mL | concentration at 12 h (220 μg/kg/hr, calculated for dose 220 μg/kg/hr, time 12 hr): 208 ng/mL | concentration at 24 h (220 μg/kg/hr, calculated for dose 220 μg/kg/hr, time 24 hr): 233 ng/mL | concentration at 48 h (220 μg/kg/hr, calculated for dose 220 μg/kg/hr, time 48 hr): 257 ng/mL | concentration at 12 h (260 μg/kg/hr, calculated for dose 260 μg/kg/hr, time 12 hr): 246 ng/mL | concentration at 24 h (260 μg/kg/hr, calculated for dose 260 μg/kg/hr, time 24 hr): 276 ng/mL | concentration at 48 h (260 μg/kg/hr, calculated for dose 260 μg/kg/hr, time 48 hr): 304 ng/mL | AUC (AUC12-24, calculated from Table 1C): 1040 ng·h/mL | AUC (AUC12-48, calculated from Table 1C): 3340 ng·h/mL | AUC (AUC24-48, calculated from Table 1C): 2300 ng·h/mL
